# Activity calls are given as the source filed them. The calls are words filed in the database; no cut-off is given here.
# Tests used:
# Botrytis cinerea [1] = assay: Protective antifungal activity against Botryotinia fuckeliana inoculated in fungicide-applied strawberry fruit assessed as disease severity measuring lesion diameter at 10 ug AI/ml applied 24 hr prior inoculation; type: functional
# Botrytis cinerea [2] = assay: Protective antifungal activity against Botryotinia fuckeliana inoculated in fungicide-applied strawberry fruit assessed as disease severity measuring lesion diameter at 50 ug AI/ml applied 48 hr prior inoculation; type: functional
# Botrytis cinerea [3] = assay: Protective antifungal activity against Botryotinia fuckeliana inoculated in fungicide-applied strawberry fruit assessed as disease control efficacy at 50 ug AI/ml applied 48 hr prior inoculation relative to control; type: functional
# Botrytis cinerea [4] = assay: Curative antifungal activity against Botryotinia fuckeliana inoculated in strawberry fruit assessed as disease severity measuring lesion diameter at 100 ug AI/ml applied 48 hr post-inoculation; type: functional
# Botrytis cinerea [5] = assay: Protective antifungal activity against Botryotinia fuckeliana inoculated in fungicide-applied strawberry fruit assessed as disease control efficacy at 100 ug AI/ml applied 48 hr prior inoculation relative to control; type: functional
# Botrytis cinerea [6] = assay: Curative antifungal activity against Botryotinia fuckeliana inoculated in strawberry fruit assessed as disease control efficacy at 50 ug AI/ml applied 24 hr post-inoculation relative to control; type: functional
# Botrytis cinerea [7] = assay: Curative antifungal activity against Botryotinia fuckeliana inoculated in strawberry fruit assessed as disease control efficacy at 100 ug AI/ml applied 24 hr post-inoculation relative to control; type: functional
# Botrytis cinerea [8] = assay: Protective antifungal activity against Botryotinia fuckeliana inoculated in fungicide-applied strawberry fruit assessed as disease severity measuring lesion diameter at 50 ug AI/ml applied 96 hr prior-inoculation; type: functional
# Botrytis cinerea [9] = assay: Curative antifungal activity against Botryotinia fuckeliana inoculated in strawberry fruit assessed as disease severity measuring lesion diameter at 1 ug AI/ml applied 24 hr post-inoculation; type: functional
# Botrytis cinerea [10] = assay: Curative antifungal activity against Botryotinia fuckeliana inoculated in strawberry fruit assessed as disease severity measuring lesion diameter at 100 ug AI/ml applied 24 hr post-inoculation; type: functional
# Botrytis cinerea [11] = assay: Curative antifungal activity against Botryotinia fuckeliana inoculated in strawberry fruit assessed as disease control efficacy at 10 ug AI/ml applied 96 hr post-inoculation relative to control; type: functional
# Botrytis cinerea [12] = assay: Antifungal activity against Botryotinia fuckeliana grown on water agar assessed as inhibition of spore germination at 1 ug/ml after 10 days; type: functional, organism-based
# Botrytis cinerea [13] = assay: Antifungal activity against Botryotinia fuckeliana assessed as inhibition of spore germination at 0.001 to 10 ug/ml after 10 days; type: functional, organism-based
# Botrytis cinerea [14] = assay: Antifungal activity against Botryotinia fuckeliana grown on YBA agar assessed as inhibition of mycelial growth at 5 ug/ml after 10 days; type: functional, organism-based
# Botrytis cinerea [15] = assay: Protective antifungal activity against Botryotinia fuckeliana inoculated in fungicide-applied strawberry fruit assessed as disease control efficacy at 10 ug AI/ml applied 96 hr prior-inoculation relative to control; type: functional
# Botrytis cinerea [16] = assay: Curative antifungal activity against Botryotinia fuckeliana inoculated in strawberry fruit assessed as disease severity measuring lesion diameter at 50 ug AI/ml applied 96 hr post-inoculation; type: functional
# Botrytis cinerea [17] = assay: Antifungal activity against Botryotinia fuckeliana grown on water agar assessed as inhibition of germ tube growth at 1 ug/ml after 10 days; type: functional, organism-based
# Botrytis cinerea [18] = assay: Curative antifungal activity against Botryotinia fuckeliana inoculated in strawberry fruit assessed as disease severity measuring lesion diameter at 10 ug AI/ml applied 24 hr post-inoculation; type: functional
# Botrytis cinerea [19] = assay: Curative antifungal activity against Botryotinia fuckeliana inoculated in strawberry fruit assessed as disease control efficacy at 100 ug AI/ml applied 48 hr post-inoculation relative to control; type: functional
# Botrytis cinerea [20] = assay: Antifungal activity against Botryotinia fuckeliana obtained from kiwi fruit isolate assessed as inhibition of spore germ tube growth; type: functional, organism-based
# Botrytis cinerea [21] = assay: Antifungal activity against Botryotinia fuckeliana grown on PDA medium assessed as inhibition of mycelial growth at 10 ug/ml after 10 days; type: functional, organism-based
# Botrytis cinerea [22] = assay: Protective antifungal activity against Botryotinia fuckeliana inoculated in fungicide-applied strawberry fruit assessed as disease severity measuring lesion diameter at 10 ug AI/ml applied 96 hr prior-inoculation; type: functional
# Botrytis cinerea [23] = assay: Curative antifungal activity against Botryotinia fuckeliana inoculated in strawberry fruit assessed as disease control efficacy at 10 ug AI/ml applied 24 hr post-inoculation relative to control; type: functional
# Botrytis cinerea [24] = assay: Protective antifungal activity against Botryotinia fuckeliana inoculated in fungicide-applied strawberry fruit assessed as disease control efficacy at 10 ug AI/ml applied 48 hr prior inoculation relative to control; type: functional
# Botrytis cinerea [25] = assay: Curative antifungal activity against Botryotinia fuckeliana inoculated in strawberry fruit assessed as disease control efficacy at 50 ug AI/ml applied 48 hr post-inoculation relative to control; type: functional
# Botrytis cinerea [26] = assay: Antifungal activity against Botryotinia fuckeliana grown on succinate medium assessed as inhibition of mycelial growth at 10 ug/ml after 10 days; type: functional, organism-based
# Botrytis cinerea [27] = assay: Curative antifungal activity against Botryotinia fuckeliana inoculated in strawberry fruit assessed as disease control efficacy at 1 ug AI/ml applied 24 hr post-inoculation relative to control; type: functional
# Botrytis cinerea [28] = assay: Protective antifungal activity against Botryotinia fuckeliana inoculated in fungicide-applied strawberry fruit assessed as disease severity measuring lesion diameter at 100 ug AI/ml applied 96 hr prior-inoculation; type: functional
# Botrytis cinerea [29] = assay: Protective antifungal activity against Botryotinia fuckeliana inoculated in fungicide-applied strawberry fruit assessed as disease control efficacy at 1 ug AI/ml applied 96 hr prior-inoculation relative to control; type: functional
# Botrytis cinerea [30] = assay: Protective antifungal activity against Botryotinia fuckeliana inoculated in fungicide-applied strawberry fruit assessed as disease severity measuring lesion diameter at 1 ug AI/ml applied 48 hr prior inoculation; type: functional
# Botrytis cinerea [31] = assay: Curative antifungal activity against Botryotinia fuckeliana inoculated in strawberry fruit assessed as disease severity measuring lesion diameter at 1 ug AI/ml applied 96 hr post-inoculation; type: functional
# Botrytis cinerea [32] = assay: Antifungal activity against Botryotinia fuckeliana grown on YBA agar assessed as inhibition of germ tube growth at 1 ug/ml after 10 days; type: functional, organism-based
# Botrytis cinerea [33] = assay: Antifungal activity against Botryotinia fuckeliana obtained from cucumber isolate assessed as inhibition of spore germ tube growth; type: functional, organism-based
# Botrytis cinerea [34] = assay: Protective antifungal activity against Botryotinia fuckeliana inoculated in fungicide-applied strawberry fruit assessed as disease control efficacy at 50 ug AI/ml applied 96 hr prior-inoculation relative to control; type: functional
# Botrytis cinerea [35] = assay: Curative antifungal activity against Botryotinia fuckeliana inoculated in strawberry fruit assessed as disease severity measuring lesion diameter at 10 ug AI/ml applied 96 hr post-inoculation; type: functional
# Botrytis cinerea [36] = assay: Antifungal activity against Botryotinia fuckeliana obtained from grape isolate assessed as inhibition of spore germ tube growth; type: functional, organism-based
# Botrytis cinerea [37] = assay: Antifungal activity against Botryotinia fuckeliana grown on succinate medium assessed as inhibition of germ tube growth at 5 ug/ml after 10 days; type: functional, organism-based
# Botrytis cinerea [38] = assay: Antifungal activity against Botryotinia fuckeliana grown on YBA agar assessed as inhibition of spore germination at 1 ug/ml after 10 days; type: functional, organism-based
# Botrytis cinerea [39] = assay: Protective antifungal activity against Botryotinia fuckeliana inoculated in fungicide-applied strawberry fruit assessed as disease severity measuring lesion diameter at 100 ug AI/ml applied 48 hr prior inoculation; type: functional
# Botrytis cinerea [40] = assay: Curative antifungal activity against Botryotinia fuckeliana inoculated in strawberry fruit assessed as disease severity measuring lesion diameter at 1 ug AI/ml applied 48 hr post-inoculation; type: functional
compound,measurement,setting,value
O=C(NCCc1ncc(C(F)(F)F)cc1Cl)c1ccccc1C(F)(F)F [FLUOPYRAM],Activity,Botrytis cinerea [1],4.2 mm
same,Activity,Botrytis cinerea [2],2.3 mm
same,Efficacy,Botrytis cinerea [3],87.7%
same,Activity,Botrytis cinerea [4],1.4 mm
same,Efficacy,Botrytis cinerea [5],95.9%
same,Efficacy,Botrytis cinerea [6],77.3%
same,Efficacy,Botrytis cinerea [7],79.3%
same,Activity,Botrytis cinerea [8],3.9 mm
same,Activity,Botrytis cinerea [9],8.8 mm
same,Activity,Botrytis cinerea [10],3.9 mm
same,Efficacy,Botrytis cinerea [11],41.1%
same,growth inhibition (GI),Botrytis cinerea [12],Active
same,growth inhibition (GI),Botrytis cinerea [13],Active
same,growth inhibition (GI),Botrytis cinerea [14],Active
same,Efficacy,Botrytis cinerea [15],66.3%
same,Activity,Botrytis cinerea [16],10.3 mm
same,growth inhibition (GI),Botrytis cinerea [17],Active
same,Activity,Botrytis cinerea [18],5.7 mm
same,Efficacy,Botrytis cinerea [19],92.2%
same,EC50,Botrytis cinerea [20],0.1 µg/mL
same,growth inhibition (GI),Botrytis cinerea [21],inactive
same,Activity,Botrytis cinerea [22],4.2 mm
same,Efficacy,Botrytis cinerea [23],69.7%
same,Efficacy,Botrytis cinerea [24],70.8%
same,Efficacy,Botrytis cinerea [25],82.9%
same,growth inhibition (GI),Botrytis cinerea [26],inactive
same,Efficacy,Botrytis cinerea [27],53%
same,Activity,Botrytis cinerea [28],0.7 mm
same,Efficacy,Botrytis cinerea [29],53.6%
same,Activity,Botrytis cinerea [30],8.6 mm
same,Activity,Botrytis cinerea [31],11.8 mm
same,growth inhibition (GI),Botrytis cinerea [32],Active
same,EC50,Botrytis cinerea [33],0.1 µg/mL
same,Efficacy,Botrytis cinerea [34],79.2%
same,Activity,Botrytis cinerea [35],11.1 mm
same,EC50,Botrytis cinerea [36],0.13 µg/mL
same,growth inhibition (GI),Botrytis cinerea [37],Active
same,growth inhibition (GI),Botrytis cinerea [38],Active
same,Activity,Botrytis cinerea [39],1.1 mm
same,Activity,Botrytis cinerea [40],6.9 mm
